Experimental data: the NIST ThermoML archive (doi:10.1021/je200721d)
Numbers after ± are expanded uncertainties.

Test: xn = mol fraction of the nth substance listed
Details: Liquid, Vibrating tube method

CCCCCCCCCC [decane] + CCCCCC
Details	mass density [kg/m3]
343.06 K, 22000 kPa, x2 = 0.7524	665.93 ± 0.47
343.06 K, 23000 kPa, x2 = 0.2185	702.17 ± 0.44
343.06 K, 23000 kPa, x2 = 0.7524	666.87 ± 0.48
343.06 K, 24000 kPa, x2 = 0.2185	702.97 ± 0.44
343.06 K, 24000 kPa, x2 = 0.7524	667.79 ± 0.49
343.06 K, 25000 kPa, x2 = 0.2185	703.79 ± 0.45
343.06 K, 25000 kPa, x2 = 0.7524	668.69 ± 0.5
343.08 K, 1000 kPa, x2 = 0.4968	663.07 ± 0.27
343.08 K, 2000 kPa, x2 = 0.4968	664.35 ± 0.27
343.08 K, 3000 kPa, x2 = 0.4968	665.55 ± 0.28
343.08 K, 4000 kPa, x2 = 0.4968	666.8 ± 0.29
343.08 K, 5000 kPa, x2 = 0.4968	667.97 ± 0.3
343.08 K, 6000 kPa, x2 = 0.4968	669.14 ± 0.31
343.08 K, 7000 kPa, x2 = 0.4968	670.28 ± 0.31
343.08 K, 8000 kPa, x2 = 0.4968	671.4 ± 0.32
343.08 K, 9000 kPa, x2 = 0.4968	672.48 ± 0.33
343.08 K, 10000 kPa, x2 = 0.4968	673.55 ± 0.34
343.08 K, 11000 kPa, x2 = 0.4968	674.64 ± 0.35
343.08 K, 12000 kPa, x2 = 0.4968	675.64 ± 0.36
343.08 K, 13000 kPa, x2 = 0.4968	676.63 ± 0.37
343.08 K, 14000 kPa, x2 = 0.4968	677.63 ± 0.37
343.08 K, 15000 kPa, x2 = 0.4968	678.63 ± 0.38
343.08 K, 16000 kPa, x2 = 0.4968	679.61 ± 0.39
343.08 K, 17000 kPa, x2 = 0.4968	680.59 ± 0.4
343.08 K, 18000 kPa, x2 = 0.4968	681.52 ± 0.41
343.08 K, 19000 kPa, x2 = 0.4968	682.46 ± 0.42
343.08 K, 20000 kPa, x2 = 0.4968	683.4 ± 0.43
343.08 K, 21000 kPa, x2 = 0.4968	684.32 ± 0.44
343.08 K, 22000 kPa, x2 = 0.4968	685.22 ± 0.45
343.08 K, 23000 kPa, x2 = 0.4968	686.1 ± 0.46
343.08 K, 24000 kPa, x2 = 0.4968	686.98 ± 0.46
343.08 K, 25000 kPa, x2 = 0.4968	687.83 ± 0.47
352.75 K, 1000 kPa, x2 = 0.8991	617.37 ± 0.28
352.75 K, 2000 kPa, x2 = 0.8991	618.91 ± 0.29
352.75 K, 3000 kPa, x2 = 0.8991	620.43 ± 0.3
352.75 K, 4000 kPa, x2 = 0.8991	621.91 ± 0.31
352.75 K, 5000 kPa, x2 = 0.8991	623.4 ± 0.3
352.75 K, 6000 kPa, x2 = 0.8991	624.85 ± 0.33
352.75 K, 7000 kPa, x2 = 0.8991	626.29 ± 0.34
352.75 K, 8000 kPa, x2 = 0.8991	627.7 ± 0.4
352.75 K, 9000 kPa, x2 = 0.8991	629.09 ± 0.36
352.75 K, 10000 kPa, x2 = 0.8991	630.46 ± 0.37
352.75 K, 11000 kPa, x2 = 0.8991	631.8 ± 0.4
352.75 K, 12000 kPa, x2 = 0.8991	633.12 ± 0.39
352.75 K, 13000 kPa, x2 = 0.8991	634.41 ± 0.4
352.75 K, 14000 kPa, x2 = 0.8991	635.69 ± 0.41
352.75 K, 15000 kPa, x2 = 0.8991	636.93 ± 0.42
352.75 K, 16000 kPa, x2 = 0.8991	638.16 ± 0.43
352.75 K, 17000 kPa, x2 = 0.8991	639.35 ± 0.44
352.75 K, 18000 kPa, x2 = 0.8991	640.52 ± 0.45
352.75 K, 19000 kPa, x2 = 0.8991	641.66 ± 0.46
352.75 K, 20000 kPa, x2 = 0.8991	642.78 ± 0.47
352.75 K, 21000 kPa, x2 = 0.8991	643.87 ± 0.48
352.75 K, 22000 kPa, x2 = 0.8991	644.93 ± 0.49
352.75 K, 23000 kPa, x2 = 0.8991	645.98 ± 0.5
352.75 K, 24000 kPa, x2 = 0.8991	646.99 ± 0.52
352.75 K, 25000 kPa, x2 = 0.8991	647.98 ± 0.53
352.99 K, 1000 kPa, x2 = 0.0456	682.21 ± 0.26
352.99 K, 1000 kPa, x2 = 0.7524	632.44 ± 0.28
352.99 K, 2000 kPa, x2 = 0.0456	683.34 ± 0.27
352.99 K, 2000 kPa, x2 = 0.7524	633.97 ± 0.29
352.99 K, 3000 kPa, x2 = 0.0456	684.46 ± 0.27
352.99 K, 3000 kPa, x2 = 0.7524	635.47 ± 0.29
352.99 K, 4000 kPa, x2 = 0.0456	685.57 ± 0.28
352.99 K, 4000 kPa, x2 = 0.7524	636.89 ± 0.3
352.99 K, 5000 kPa, x2 = 0.0456	686.64 ± 0.29
352.99 K, 5000 kPa, x2 = 0.7524	638.37 ± 0.31
352.99 K, 6000 kPa, x2 = 0.0456	687.71 ± 0.29
352.99 K, 6000 kPa, x2 = 0.7524	639.77 ± 0.32
352.99 K, 7000 kPa, x2 = 0.0456	688.77 ± 0.3
352.99 K, 7000 kPa, x2 = 0.7524	641.14 ± 0.33
352.99 K, 8000 kPa, x2 = 0.0456	689.81 ± 0.31
352.99 K, 8000 kPa, x2 = 0.7524	642.48 ± 0.34
352.99 K, 9000 kPa, x2 = 0.0456	690.83 ± 0.32
352.99 K, 9000 kPa, x2 = 0.7524	643.77 ± 0.35
352.99 K, 10000 kPa, x2 = 0.0456	691.84 ± 0.33
352.99 K, 10000 kPa, x2 = 0.7524	645.03 ± 0.36
352.99 K, 11000 kPa, x2 = 0.0456	692.84 ± 0.33
352.99 K, 11000 kPa, x2 = 0.7524	646.28 ± 0.37
352.99 K, 12000 kPa, x2 = 0.0456	693.82 ± 0.34
352.99 K, 12000 kPa, x2 = 0.7524	647.51 ± 0.38
352.99 K, 13000 kPa, x2 = 0.0456	694.79 ± 0.35
352.99 K, 13000 kPa, x2 = 0.7524	648.71 ± 0.39
352.99 K, 14000 kPa, x2 = 0.0456	695.75 ± 0.36
352.99 K, 14000 kPa, x2 = 0.7524	649.88 ± 0.4
352.99 K, 15000 kPa, x2 = 0.0456	696.69 ± 0.37
352.99 K, 15000 kPa, x2 = 0.7524	651.03 ± 0.41
352.99 K, 16000 kPa, x2 = 0.0456	697.62 ± 0.37
352.99 K, 16000 kPa, x2 = 0.7524	652.16 ± 0.42
352.99 K, 17000 kPa, x2 = 0.0456	698.54 ± 0.38
352.99 K, 17000 kPa, x2 = 0.7524	653.28 ± 0.43
352.99 K, 18000 kPa, x2 = 0.0456	699.44 ± 0.39
352.99 K, 18000 kPa, x2 = 0.7524	654.35 ± 0.44
352.99 K, 19000 kPa, x2 = 0.0456	700.33 ± 0.4
